Literature values as cited in patent publication US11389451B2, “Metolazone emulsion formulation” (ACADEMIC PHARMACEUTICALS, INC., priority 2017, dated 2022).

Conditions: background statement

Cc1ccccc1N1C(=O)c2cc(S(N)(=O)=O)c(Cl)cc2NC1C (centres unmarked) [Metolazone]
solubility in lipids: moderate to high | solubility in water: low
